Assays:
[1] = tested on: HeLa (human uterine cervical cancer cell line); test: Cell proliferation assay (WST-8) on HeLa cells; type: cell-based; conditions: 72 hours, various concentrations, WST-8, FIG. 3, FIG. 4
Description: Next, the synthesized compounds were verified by WST-8 assay for their ability to suppress cancer cell proliferation.
Cell lines of HeLa (human uterine cervical cancer cell line), LOVO, RKO and SW480 (each of which was a human large bowel cancer cell line) were each cultured at 37° C. under 5% carbon dioxide conditions using Dulbecco's modified Eagle's medium (DMEM, Nacalai Tesque, Inc., Japan) supplemented with 10% fetal bovine serum (FBS: JRH bioscience, USA), antibiotics (50 U/ml penicillin and 50 μg/ml streptomycin) and 1 mM sodium pyruvate. Single-layered cells grown to 80-90% confluency on 10 cm cell culture dishes were washed with D-PBS(−) (Nacalai Tesque, Inc., Japan) and then released from the dishes by being treated with a phenol red-containing 2.5 g/L-Trypsine/1 mmol/L EDTA solution (Nacalai Tesque, Inc., Japan). The released cells were adjusted and maintained in fresh medium.
Each cell line seeded at 3×10^3 cells/well in a MICROTEST tissue culture plate (96 well, FALCON) was cultured at 37° C. under 5% carbon dioxide conditions for 24 hours, and then cultured in the presence of various concentrations of PI polyamide for an additional 72 hours. After completion of the culture, 10 μl of viable cell counting reagent SF (Nacalai Tesque, Inc., Japan) was added to each well and the absorbance at 450 nm was measured by ARVO EX (PerkinElmer). During the period from reagent addition until assay, incubation was continued at 37° C. in the presence of 5% CO2 until the absorbance reached about 1.2 to 2.0 in the control sample where only 50% DMSO was added to the cells.

[2] = tested on: histone deacetylase (HDAC); test: HDAC activity assay (HDAC Fluorimetric Assay/Drug Discovery Kit); type: biochemical, human; conditions: HDAC-containing HeLa cell nuclear fraction, 37°C for 1 hour, various concentrations, FIG. 2
Description: To verify whether the activity of histone deacetylase (HDAC) was inhibited by compounds composed of the synthesized SAHA derivatives and polyamides attached to each other, an HDAC Fluorimetric Assay/Drug Discovery Kit (BIOMOL international) was used in the experiment. Although details followed the instructions of the kit manufacturer, an HDAC-containing HeLa cell (human uterine cervical cancer cell line) nuclear fraction was added to an acetylation substrate and incubated at 37° C. for 1 hour in the presence of various concentrations of the synthesized compounds or trichostatin A (hereinafter referred to as TSA) used as a positive control, followed by addition of the developer included in the kit to stop the HDAC-catalyzed reaction. Then, the samples were transferred to a 96-well assay plate and measured with ARVO EX (Perkin Elmer) for emission at 460 nm from the reaction product upon excitation at 360 nm.

[3] = tested on: MDA-MB231 breast cancer cells; test: Cell proliferation assay (II), trypan blue cell counts; type: cell-based; conditions: after culture for 72 hours, FIG. 12
Description: MDA-MB231 breast cancer cells (1×10^5 cells) were cultured in 6 cm diameter dishes using RPMI-1640 medium containing fetal bovine serum at a final concentration of 10%. For culture, the medium was supplemented with or without each polyamide (SAHA+p16NU PIP or SAHA+non-targeting PIP) at the final concentration indicated below.
Starting from the initiation of culture, the following operation was repeated every 24 hours. Namely, after being observed under a microscope, the cells were harvested and counted to determine the numbers of viable cells […] and dead cells […]. As a result, proliferation of the cells and their survival rate were determined.

Row | Molecule | suppression of HeLa cell proliferation [1] | anti-HDAC activity [2] | cell proliferation significantly suppressed, compared to untreated group or 1 μM SAHA+non-targeting PIP ([3]; MDA-MB231, 1 μM) | cell proliferation significantly suppressed, compared to untreated group or 1 μM SAHA+non-targeting PIP ([3]; MDA-MB231, 2 μM) | anti-HDAC activity ([2]; listed as conjugate between esterified SAHA and p16 PIP)
1 | CN(C)CCCNC(=O)CCNC(=O)c1cc(NC(=O)c2cc(NC(=O)c3nc(NC(=O)CCCNC(=O)c4cc(NC(=O)c5nc(NC(=O)c6nc(NC(=O)CCNC(=O)CCNC(=O)c7ccc(NC(=O)CCCCCCC(=O)NO)cc7)cn6C)cn5C)cn4C)cn3C)cn2C)cn1C [SAHA+non-targeting PIP, SAHA-ββImPyPyγImImPyβDp] | not suppressed | confirmed to have anti-HDAC activity |  |  | 
2 | O=C(CCCCCCC(=O)Nc1ccccc1)NO [SAHA, suberoylanilide hydroxamic acid, reference compound] | did not suppress |  |  |  | 
3 | SAHA-(PEG) ββImPyPyβImPyγImPyβImImPyβDp [SAHA+ether linker+p16 PIP] |  | confirmed to have anti-HDAC activity |  |  | 
4 | SAHA-H2NββPyPyβPyPyPyγImImImβPyImβDp [SAHA+p16NU PIP] |  |  | 83% | about 60% | 
5 | COC(=O)CCCCCCC(=O)Nc1ccc(C(=O)NCCC(=O)NCCC(=O)Nc2cn(C)c(C(=O)Nc3cc(C(=O)Nc4cc(C(=O)NCCC(=O)Nc5cn(C)c(C(=O)Nc6cc(C(=O)NCCCC(=O)Nc7cn(C)c(C(=O)Nc8cc(C(=O)NCCC(=O)Nc9cn(C)c(C(=O)Nc%10cn(C)c(C(=O)Nc%11cc(C(=O)NCCC(=O)NCCCN(C)C)n(C)c%11)n%10)n9)n(C)c8)n7)n(C)c6)n5)n(C)c4)n(C)c3)n2)cc1 [esterified SAHA+p16 PIP, 4-(8-methoxy-8-oxooctanamido)benzoyl-ββImPyPyβImPyγImPyβImIm PyβDp] | not suppressed | no HDAC activity |  |  | did not inhibit HDAC activity
6 | CC(/C=C/C(=O)NO)=C\[C@@H](C)C(=O)c1ccc(N(C)C)cc1 [TSA, trichostatin A, reference compound] | proliferation inhibition | high activity |  |  | 

Source: US20110160399A1, “HISTONE MODIFICATION INHIBITOR SPECIFIC TO TARGET GENE” (NIHON UNIVERSITY, priority 2008, published 2011)
